Test results published in patent publication US10851053B2, “Chemical compounds” (GlaxoSmithKline Intellectual Property Development Limited, priority 2016, dated 2020).
Values joined by “and” are separate entries in the source; they are usually repeats but may differ in a detail not shown here. Equal entries are not always repeated.

system: ATF4 translation (ATF4 pathway), SH-SY5Y-ATF4-NanoLuc cells; assay: ATF4 cell based assay (ATF4 5'-UTR NanoLuc luciferase reporter, Thapsigargin induced cellular stress); conditions: SH-SY5Y-ATF4-NanoLuc cells challenged with Thapsigargin for 14-18 hours; average of two or more experimental runs; read-out: average ATF4 pathway inhibitory activity (IC50)
From the text: The ATF4 reporter assay measures the effect of Thapsigargin induced cellular stress on ATF4 expression. For this reporter assay, a stable cell line was created by transfecting SH-SY5Y cells with a plasmid containing the NanoLuc® luciferase gene fused to the 5′-UTR of ATF4, under the control of the CMV promoter. The ATF4 5′-UTR contains two open reading frames which mediate the cellular stress-dependent translation of the reporter gene. Clones stably expressing the reporter construct were isolated and selected based on the luminescence response to thapsigargin and inhibition of this signal by test compounds. Briefly, SH-SY5Y-ATF4-NanoLuc cells were challenged with Thapsigargin for 14-18 hours to determine the stress effect with or without test compounds.
Cells were propagated in growth media consisting of 90% DMEM F12 (InVitrogen #11320-033), 10% Fetal Bovine Serum (Gibco #10438-026), 5 mM Glutamax (Gibco #35050-061), 5 mM Hepes, (Gibco #15630-080), and 0.5 mg/ml Geneticin (Gibco #10131-027). Cells were prepared for the assay by removing all media from cells, washing the plated cells with phosphate buffered saline, and detached by adding a solution comprised of 10% Tryple express solution (InVitrogen12604-021) and 90% enzyme-free cell dissociation buffer HANKS base (Gibco 13150-016). The trypsin was deactivated by adding assay media comprised of 90% phenol-red free DMEM F12 (InVitrogen, 11039), 10% Fetal Bovine Serum (Gibco #10438-026), (5 mM Glutamax (Gibco #35050-061), 5 mM Hepes, (Gibco #15630-080), and 0.5 mg/ml Geneticin (Gibco #10131-027). Suspended cells were spun down at 300 g for 5 min, the supernatant was removed and the cell pellet was suspended in warm media (30-37° C.) comprised as above at (1e6 cell/ml).
Assay plates were prepared by adding 250 nL of compound stock solution in 100% DMSO to each well, followed by dispensing 20 microliters/well cell suspension to deliver 15-20 k cell/well. Cells were incubated for 1 hour at 37° C. Then, 5 μL of 1.5 μM or 1 μM of Thapsigargin (final concentration: 200-300 nM) was added to each well of cells. Assay plates containing cells were incubated for 14-18 hours at 37° C.
The measurement of luciferase produced by the ATF4 constructs was measured as follows. Aliquots of the Nano-Glo reagent (Nano-Glo® Luciferase Assay Substrate, Promega, N113, Nano-Glo® Luciferase Assay Buffer, Promega, N112 (parts of Nano-Glo® Luciferase Assay System, N1150) were brought to room temperature, the substrate and buffer were mixed according to manufacturer's instructions. The cell plates were equilibrated to room temperature. 25 microliters/well of the mixed Nano-Glo reagent were dispensed into assay wells and pulse spun to settle contents and the plate was sealed with film. The plates were incubated at room temperature for 1 hour before detecting luminescence on an Envision plate reader.
Compounds of the invention are tested for activity against ATF4 translation in the above assay.

| IC50 | SMILES |
| --- | --- |
| 101 to 1000 nM | O=C(COc1ccc(Cl)cc1)NOC1CCN(C(=O)COc2ccc(Cl)cc2)C1 (stereo not drawn) [Example 33, 2-(4-chlorophenoxy)-N-((1-(2-(4-chlorophenoxy)acetyl)pyrrolidin-3-yl)oxy)acetamide] |
| 101 to 1000 nM | O=C(COc1ccc(Cl)cc1)NOC1CCN(C(=O)C2CC2c2ccc(Cl)cc2)C1 (stereo not drawn) [Example 34, 2-(4-chlorophenoxy)-N-((1-(2-(4-chlorophenyl)cyclopropane-1-carbonyl)pyrrolidin-3-yl)oxy)acetamide] |
| < 100 nM | O=C(COc1ccc(Cl)cc1)NOC1CCN(C(=O)CCOc2ccc(Cl)cc2)C1 (stereo not drawn) [Example 35, 2-(4-chlorophenoxy)-N-((1-(3-(4-chlorophenoxy)propanoyl)pyrrolidin-3-yl)oxy)acetamide] |
| 101 to 1000 nM | O=C(COc1ccc(Cl)cc1)NCC1(F)CCN(C(=O)COc2ccc(Cl)cc2)C1 (stereo not drawn) [Example 36, 2-(4-chlorophenoxy)-N-((1-(2-(4-chlorophenoxy)acetyl)-3-fluoropyrrolidin-3-yl)methyl)acetamide] |
| < 100 nM and 69.5 nM | O=C(COc1ccc(Cl)cc1)N[C@H]1[C@@H]2CN(C(=O)C3CC3c3ccc(Cl)cc3)C[C@@H]21 (stereo partly drawn) [Example 37, 2-(4-chlorophenoxy)-N-((1R,5S,6s)-3-(2-(4-chlorophenyl)cyclopropane-1-carbonyl)-3-azabicyclo[3.1.0]hexan-6-yl)acetamide] |
| < 100 nM | O=C(COc1ccc(Cl)cc1)NCC1CCN(C(=O)CCCc2ccc(Cl)cc2)C1 (stereo not drawn) [Example 38, 2-(4-chlorophenoxy)-N-((1-(4-(4-chlorophenyl)butanoyl)pyrrolidin-3-yl)methyl)acetamide] |
| 101 to 1000 nM | CC1CC(CNC(=O)COc2ccc(Cl)cc2)CN1C(=O)COc1ccc(Cl)cc1 (stereo not drawn) [Example 39, 2-(4-chlorophenoxy)-N-((1-(2-(4-chlorophenoxy)acetyl)-5-methylpyrrolidin-3-yl)methyl)acetamide] |
| < 100 nM | O=C(COc1ccc(Cl)cc1)NCC1CCN(C(=O)C2CC2c2ccc(Cl)cc2)C1 (stereo not drawn) [Example 40, 2-(4-chlorophenoxy)-N-((1-(2-(4-chlorophenyl)cyclopropanecarbonyl)pyrrolidin-3-yl)methyl)acetamide] |
| 101 to 1000 nM | O=C(COc1ccc(Cl)cc1)NCC1(F)CCN(CCOc2ccc(Cl)cc2)C1 (stereo not drawn) [Example 42, 2-(4-chlorophenoxy)-N-((1-(2-(4-chlorophenoxy)ethyl)-3-fluoropyrrolidin-3-yl)methyl)acetamide] |
| < 100 nM | CC1(CNC(=O)COc2ccc(Cl)cc2)CCN(CCOc2ccc(Cl)cc2)C1 (stereo not drawn) [Example 43, 2-(4-chlorophenoxy)-N-((1-(2-(4-chlorophenoxy)ethyl)-3-methylpyrrolidin-3-yl)methyl)acetamide] |
| < 100 nM | O=C(COc1ccc(Cl)c(Cl)c1)NCC1CCN(CCCOc2ccc(Cl)cc2)C1 (stereo not drawn) [Example 44, N-((1-(3-(4-chlorophenoxy)propyl)pyrrolidin-3-yl)methyl)-2-(3,4-dichlorophenoxy)acetamide] |
| < 100 nM | O=C(COc1ccc(C(F)(F)F)cc1)NCC1CCN(CCCOc2ccc(Cl)cc2)C1 (stereo not drawn) [Example 45, N-((1-(3-(4-chlorophenoxy)propyl)pyrrolidin-3-yl)methyl)-2-(4-(trifluoromethyl)phenoxy)acetamide] |
| 101 to 1000 nM | O=C(COc1ccc(F)cc1Cl)NCC1CCN(CCCOc2ccc(Cl)cc2)C1 (stereo not drawn) [Example 46, 2-(2-chloro-4-fluorophenoxy)-N-((1-(3-(4-chlorophenoxy)propyl)pyrrolidin-3-yl)methyl)acetamide] |
| < 100 nM | Cc1cc(OCC(=O)NCC2CCN(CCCOc3ccc(Cl)cc3)C2)ccc1Cl (stereo not drawn) [Example 47, 2-(4-chloro-3-methylphenoxy)-N-((1-(3-(4-chlorophenoxy)propyl)pyrrolidin-3-yl)methyl)acetamide] |
| 101 to 1000 nM | O=C(COc1ccc(Cl)cc1)NCC1CCN(CCCOc2ccc(F)cc2)C1 (stereo not drawn) [Example 49, 2-(4-chlorophenoxy)-N-((1-(3-(4-fluorophenoxy)propyl)pyrrolidin-3-yl)methyl)acetamide] |
